Earlier results, collected in patent US11291658B2, “Use of gaboxadol in the treatment of diabetes and related conditions” (Ovid Therapeutics Inc., priority 2017, dated 2022).

Columns and labels:
[1] = patients with a history of drug abuse who received gaboxadol
[2] = treatment of insomnia, three-month efficacy study
[3] = tested on: streptozotocin-induced diabetic rats with moderate to severe hyperglycemia; settings: Gomez et al. 1999

SMILES: Oc1noc2c1CCNC2 [gaboxadol, 4,5,6,7-tetrahydroisoxazolo [5,4-c]pyridine-3-ol]
- psychiatric adverse events [1]: steep increase in psychiatric adverse events
- effects in sleep onset and sleep maintenance [2]: failed to show significant effects
- hypoglycemic effect [3]: very mild and could only be seen in the moderately hyperglycemic rats
